Columns and labels:
[1] = Evaluation of conversion rate to active form in buffer solution (Experimental Example 1); assay type: physicochemical; conditions: for Conversion to Alvocidib at pH 7.4: pH 7.4, 37° C., up to 3 hours
Experimental: For Examples 1 to 16 and Comparative Examples 1 to 14, the attrition rate of the test compound and the conversion rate of the test compound to Alvocidib in a buffer solution were calculated by the following method.
Examples 1 to 16 and Comparative Examples 1 to 14 were each left in buffer solutions adjusted to pH 5.0, 5.5, 6.0, 6.5, 7.0 and 7.4, respectively, at a concentration of 25 umol/L at 37° C. After 0, 0.5, 1, 2 and 3 hours, the residual rates of the compounds of Examples […] and the production rate of Alvocidib were determined by HPLC.
The buffer solutions used at each pH are as follows. • pH 5.0: 50 mM citrate buffer solution (pH 5.0) • pH 5.5: 50 mM citrate buffer solution (pH 5.5) • pH 6.0: 50 mM phosphate buffer solution (pH 6.0) • pH 6.5: 50 mM phosphate buffer solution (pH 6.5) • pH 7.0: 50 mM phosphate buffer solution (pH 7.0) • pH 7.4: 50 mM phosphate buffer solution (pH 7.4)
The measurement conditions for HPLC are as follows.

[2] = Evaluation of conversion rate to active form in BALB/c mouse plasma (Experimental Example 3); assay type: in vitro ADME; conditions: BALB/c, mouse, 0.2 μmol/L
Experimental: (§1) For Example 1, Example 2, Example 3, Example 4, Example 5, Example 6, Comparative Example 3, Comparative Example 4, Comparative Example 6, Comparative Example 7, Comparative Example 8, Comparative Example 9, Comparative Example 10 and Comparative Example 12, the attrition rate of the test compound and the conversion rate of the test compound to Alvocidib in human plasma and BALB/c mouse plasma were calculated by the following method.
(§2) The test compound was added to human plasma or BALB/c mouse plasma at a concentration of 0.2 μmol/L, and incubated at 37° C. The peak areas of the test compound and Alvocidib in the sample were determined by LC-MS/MS after 0, 30 and 60 minutes for Example 1, Example 2, Example 3, Example 4, Example 5 and Example 6, and after 0, 60 and 120 minutes for Comparative Example 3, Comparative Example 4, Comparative Example 6, Comparative Example 7, Comparative Example 8, Comparative Example 9, Comparative Example 10 and Comparative Example 12, and the attrition rate of the test compound and the conversion rate of the test compound to Alvocidib were calculated by the following formula. Attrition rate of test compound (%):(peak area of test compound in sample/peak area of test compound in sample after 0 minute)×100 Conversion rate to Alvocidib (%):(peak area of Alvocidib in sample/peak area of Alvocidib in reaction solution containing 0.2 μmol/L Alvocidib)×100
(§3) The measurement conditions for LC-MS/MS are as follows. • HPLC: Prominence system (Shimadzu Corporation) • MS/MS: • Example 1, Example 2, Example 3, Example 4, Example 5, Example 6, Comparative Example 8 (mouse), Comparative Example 10 (mouse) and Comparative Example 12 (mouse) • QTRAP5500 (SCIEX) • Comparative Example 6, Comparative Example 7, Comparative Example 8 (human), Comparative Example 9, Comparative Example 10 (human) and Comparative Example 12 (human) • 4000 QTRAP (SCIEX) • column: • other than Example 3 and Example 4 • Cadenza CD-C18, 3 μm, 50×2 mm (Imtakt Corporation) • Example 3 and Example 4 • Kinetex C8, 2.6 μm, 50×2.1 mm (Phenomenex) • column temperature: 40° C. • mobile phase: • A: water containing 0.1% formic acid • B: acetonitrile containing 0.1% formic acid • A/B (min): • Example 1, Example 2, Example 5, Example 6, Comparative Example 8 (mouse), Comparative Example 10 (mouse) and Comparative Example 12 (mouse) • 90/10(0)→40/60(5.0)→10/90(5.1)→10/90(6.5)→90/10(6.6)→90/10(8.0) • Example 3 and Example 4 • 86/14(0)→86/14(3.5)→10/90(5.5)→10/90(6.5)→86/14(6.6)→86/14(9.5) • Comparative Example 6, Comparative Example 7, Comparative Example 8 (human), Comparative Example 9, Comparative Example 10 (human) and Comparative Example 12 (human) • 90/10(0)→10/90(2.5)→10/90(3.5)→90/10(3.6)→90/10(5.0) • flow rate: 0.4 mL/min • detection: ESI (positive mode) • injection: 1 to 5 μL

[3] = Evaluation of conversion rate to active form in human plasma (Experimental Example 3); assay type: in vitro ADME; conditions: human, 0.2 μmol/L
Experimental: as §1, §2, §3

CCOC(=O)O[C@@H]1CN(C)CC[C@@H]1c1c(O)cc(O)c2c(=O)cc(-c3ccccc3Cl)oc12 [Comparative Example 3, reference compound]
Production rate of Alvocidib ([1]; pH5.0, 0 hr): 1.2%
Residual rate ([1]; pH5.0, 0 hr): 90.6%
Production rate of Alvocidib ([1]; pH5.0, 0.5 hr): 1.2%
Residual rate ([1]; pH5.0, 0.5 hr): 90.6%
Production rate of Alvocidib ([1]; pH5.0, 1 hr): 1.2%
Residual rate ([1]; pH5.0, 1 hr): 90.7%
Production rate of Alvocidib ([1]; pH5.0, 2 hr): 1.3%
Residual rate ([1]; pH5.0, 2 hr): 90.2%
Production rate of Alvocidib ([1]; pH5.0, 3 hr): 1.2%
Residual rate ([1]; pH5.0, 3 hr): 90.6%
Production rate of Alvocidib ([1]; pH5.5, 0 hr): 1.1%
Residual rate ([1]; pH5.5, 0 hr): 90.9%
Production rate of Alvocidib ([1]; pH5.5, 0.5 hr): 1.1%
Residual rate ([1]; pH5.5, 0.5 hr): 90.9%
Production rate of Alvocidib ([1]; pH5.5, 1 hr): 1.2%
Residual rate ([1]; pH5.5, 1 hr): 90.6%
Production rate of Alvocidib ([1]; pH5.5, 2 hr): 1.2%
Residual rate ([1]; pH5.5, 2 hr): 89.9%
Production rate of Alvocidib ([1]; pH5.5, 3 hr): 1.1%
Residual rate ([1]; pH5.5, 3 hr): 90.7%
Production rate of Alvocidib ([1]; pH6.0, 0 hr): 1.1%
Residual rate ([1]; pH6.0, 0 hr): 91.0%
Production rate of Alvocidib ([1]; pH6.0, 0.5 hr): 1.2%
Residual rate ([1]; pH6.0, 0.5 hr): 90.8%
Production rate of Alvocidib ([1]; pH6.0, 1 hr): 1.1%
Residual rate ([1]; pH6.0, 1 hr): 90.9%
Production rate of Alvocidib ([1]; pH6.0, 2 hr): 1.2%
Residual rate ([1]; pH6.0, 2 hr): 90.0%
Production rate of Alvocidib ([1]; pH6.0, 3 hr): 1.2%
Residual rate ([1]; pH6.0, 3 hr): 90.9%
Production rate of Alvocidib ([1]; pH6.5, 0 hr): 1.1%
Residual rate ([1]; pH6.5, 0 hr): 90.8%
Production rate of Alvocidib ([1]; pH6.5, 0.5 hr): 1.1%
Residual rate ([1]; pH6.5, 0.5 hr): 90.9%
Production rate of Alvocidib ([1]; pH6.5, 1 hr): 1.2%
Residual rate ([1]; pH6.5, 1 hr): 90.8%
Production rate of Alvocidib ([1]; pH6.5, 2 hr): 1.3%
Residual rate ([1]; pH6.5, 2 hr): 89.9%
Production rate of Alvocidib ([1]; pH6.5, 3 hr): 1.2%
Residual rate ([1]; pH6.5, 3 hr): 90.8%
Production rate of Alvocidib ([1]; pH7.0, 0 hr): 1.1%
Residual rate ([1]; pH7.0, 0 hr): 91.0%
Production rate of Alvocidib ([1]; pH7.0, 0.5 hr): 1.2%
Residual rate ([1]; pH7.0, 0.5 hr): 91.0%
Production rate of Alvocidib ([1]; pH7.0, 1 hr): 1.2%
Residual rate ([1]; pH7.0, 1 hr): 90.9%
Production rate of Alvocidib ([1]; pH7.0, 2 hr): 1.4%
Residual rate ([1]; pH7.0, 2 hr): 89.8%
Production rate of Alvocidib ([1]; pH7.0, 3 hr): 1.3%
Residual rate ([1]; pH7.0, 3 hr): 90.8%
Production rate of Alvocidib ([1]; pH7.4, 0 hr): 1.1%
Residual rate ([1]; pH7.4, 0 hr): 91.0%
Conversion to Alvocidib at pH 7.4 [1]: slowly converted to Alvocidib
Production rate of Alvocidib ([1]; pH7.4, 0.5 hr): 1.2%
Residual rate ([1]; pH7.4, 0.5 hr): 91.0%
Production rate of Alvocidib ([1]; pH7.4, 1 hr): 1.2%
Residual rate ([1]; pH7.4, 1 hr): 91.0%
Production rate of Alvocidib ([1]; pH7.4, 2 hr): 1.4%
Residual rate ([1]; pH7.4, 2 hr): 90.1%
Production rate of Alvocidib ([1]; pH7.4, 3 hr): 1.3%
Residual rate ([1]; pH7.4, 3 hr): 90.8%
Production rate (%) of Alvocidib ([2]; 0 min): 1%
Residual rate (%) of test compound ([2]; 0 min): 100%
Production rate (%) of Alvocidib ([2]; 60 min): 7%
Residual rate (%) of test compound ([2]; 60 min): 90%
Production rate (%) of Alvocidib ([2]; 120 min): 13%
Residual rate (%) of test compound ([2]; 120 min): 78%
Production rate (%) of Alvocidib ([3]; 0 min): 1%
Residual rate (%) of test compound ([3]; 0 min): 100%
Production rate (%) of Alvocidib ([3]; 60 min): 1%
Residual rate (%) of test compound ([3]; 60 min): 78%
Production rate (%) of Alvocidib ([3]; 120 min): 2%
Residual rate (%) of test compound ([3]; 120 min): 101%

CCNC(=O)O[C@@H]1CN(C)CC[C@@H]1c1c(O)cc(O)c2c(=O)cc(-c3ccccc3Cl)oc12 [Comparative Example 4, reference compound]
Production rate of Alvocidib ([1]; pH5.0, 0 hr): 1.7%
Residual rate ([1]; pH5.0, 0 hr): 97.7%
Production rate of Alvocidib ([1]; pH5.0, 0.5 hr): 1.8%
Residual rate ([1]; pH5.0, 0.5 hr): 97.8%
Production rate of Alvocidib ([1]; pH5.0, 1 hr): 1.7%
Residual rate ([1]; pH5.0, 1 hr): 97.8%
Production rate of Alvocidib ([1]; pH5.0, 2 hr): 1.8%
Residual rate ([1]; pH5.0, 2 hr): 97.7%
Production rate of Alvocidib ([1]; pH5.0, 3 hr): 1.8%
Residual rate ([1]; pH5.0, 3 hr): 97.7%
Production rate of Alvocidib ([1]; pH5.5, 0 hr): 1.8%
Residual rate ([1]; pH5.5, 0 hr): 97.8%
Production rate of Alvocidib ([1]; pH5.5, 0.5 hr): 1.8%
Residual rate ([1]; pH5.5, 0.5 hr): 97.6%
Production rate of Alvocidib ([1]; pH5.5, 1 hr): 1.8%
Residual rate ([1]; pH5.5, 1 hr): 97.7%
Production rate of Alvocidib ([1]; pH5.5, 2 hr): 1.8%
Residual rate ([1]; pH5.5, 2 hr): 97.8%
Production rate of Alvocidib ([1]; pH5.5, 3 hr): 1.8%
Residual rate ([1]; pH5.5, 3 hr): 97.6%
Production rate of Alvocidib ([1]; pH6.0, 0 hr): 1.8%
Residual rate ([1]; pH6.0, 0 hr): 97.8%
Production rate of Alvocidib ([1]; pH6.0, 0.5 hr): 1.8%
Residual rate ([1]; pH6.0, 0.5 hr): 97.7%
Production rate of Alvocidib ([1]; pH6.0, 1 hr): 1.7%
Residual rate ([1]; pH6.0, 1 hr): 97.7%
Production rate of Alvocidib ([1]; pH6.0, 2 hr): 1.8%
Residual rate ([1]; pH6.0, 2 hr): 97.7%
Production rate of Alvocidib ([1]; pH6.0, 3 hr): 1.8%
Residual rate ([1]; pH6.0, 3 hr): 97.7%
Production rate of Alvocidib ([1]; pH6.5, 0 hr): 1.8%
Residual rate ([1]; pH6.5, 0 hr): 97.7%
Production rate of Alvocidib ([1]; pH6.5, 0.5 hr): 1.8%
Residual rate ([1]; pH6.5, 0.5 hr): 97.6%
Production rate of Alvocidib ([1]; pH6.5, 1 hr): 1.8%
Residual rate ([1]; pH6.5, 1 hr): 97.7%
Production rate of Alvocidib ([1]; pH6.5, 2 hr): 1.8%
Residual rate ([1]; pH6.5, 2 hr): 97.8%
Production rate of Alvocidib ([1]; pH6.5, 3 hr): 1.8%
Residual rate ([1]; pH6.5, 3 hr): 97.7%
Production rate of Alvocidib ([1]; pH7.0, 0 hr): 1.8%
Residual rate ([1]; pH7.0, 0 hr): 97.7%
Production rate of Alvocidib ([1]; pH7.0, 0.5 hr): 1.8%
Residual rate ([1]; pH7.0, 0.5 hr): 97.7%
Production rate of Alvocidib ([1]; pH7.0, 1 hr): 1.8%
Residual rate ([1]; pH7.0, 1 hr): 97.6%
Production rate of Alvocidib ([1]; pH7.0, 2 hr): 1.8%
Residual rate ([1]; pH7.0, 2 hr): 97.6%
Production rate of Alvocidib ([1]; pH7.0, 3 hr): 1.8%
Residual rate ([1]; pH7.0, 3 hr): 97.7%
Production rate of Alvocidib ([1]; pH7.4, 0 hr): 1.8%
Residual rate ([1]; pH7.4, 0 hr): 97.7%
Conversion to Alvocidib at pH 7.4 [1]: slowly converted to Alvocidib
Production rate of Alvocidib ([1]; pH7.4, 0.5 hr): 1.8%
Residual rate ([1]; pH7.4, 0.5 hr): 97.6%
Production rate of Alvocidib ([1]; pH7.4, 1 hr): 1.7%
Residual rate ([1]; pH7.4, 1 hr): 97.7%
Production rate of Alvocidib ([1]; pH7.4, 2 hr): 1.8%
Residual rate ([1]; pH7.4, 2 hr): 97.7%
Production rate of Alvocidib ([1]; pH7.4, 3 hr): 1.8%
Residual rate ([1]; pH7.4, 3 hr): 97.8%
Production rate (%) of Alvocidib ([2]; 0 min): 2%
Residual rate (%) of test compound ([2]; 0 min): 100%
Production rate (%) of Alvocidib ([2]; 60 min): 3%
Residual rate (%) of test compound ([2]; 60 min): 94%
Production rate (%) of Alvocidib ([2]; 120 min): 3%
Residual rate (%) of test compound ([2]; 120 min): 92%
Production rate (%) of Alvocidib ([3]; 0 min): 2%
Residual rate (%) of test compound ([3]; 0 min): 100%
Production rate (%) of Alvocidib ([3]; 60 min): 3%
Residual rate (%) of test compound ([3]; 60 min): 101%
Production rate (%) of Alvocidib ([3]; 120 min): 3%
Residual rate (%) of test compound ([3]; 120 min): 134%

From US12617779B2, “Self degradation-type CDK9 inhibitor prodrug and liposome encapsulating same” (Sumitomo Pharma Co., Ltd., priority 2021, dated 2026)
